Test results reported in US9090593B2, “Bicyclic compounds as Pim inhibitors” (AMGEN INC., priority 2010, dated 2015).
Read-outs that look alike come from different tables or passages of the source.

Assays:
[1] = molecular target: T1, full length recombinant Pim-1 protein (Homo sapiens, UniProt P11309); test: Pim-1 enzyme assay (HTRF, phosphorylation of biotinylated-BAD (S112) peptide); type: biochemical; conditions: enzyme assay, Pim-1; read-out: Pim_1_IC50
T1 construct: by full length recombinant Pim-1, Pim-2, or Pim-3 protein; hexahistidine tag followed by a thrombin cleavage site (N); made in house; host or cells: Sf9 (baculovirus) or E. coli (pET28)
Procedure, shortened: (§1)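 Kinase: full-length human Pim-1/Pim-2, His6-thrombin tagged. Substrate biotin-BAD (S112) peptide. Buffer 60 mM Hepes pH 7.0, 0.05% BSA, 2 mM DTT. Stop 3 mM EDTA. Detection HTRF (Eu anti-pBAD/SA-APC). IC50 by 4-parameter logistic on POC.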

[2] = molecular target: T2, full length recombinant Pim-2 protein (Homo sapiens, UniProt Q9P1W9); test: Pim-2 enzyme assay (HTRF, phosphorylation of biotinylated-BAD (S112) peptide); type: biochemical; conditions: enzyme assay, Pim-2; read-out: Pim2_IC50
T2 construct: by full length recombinant Pim-1, Pim-2, or Pim-3 protein; hexahistidine tag followed by a thrombin cleavage site (N); made in house; host or cells: Sf9 (baculovirus) or E. coli (pET28)
Procedure, shortened: as §1

[3] = molecular target: T3, full length recombinant Pim-3 protein (Homo sapiens, UniProt Q86V86); test: Pim-3 enzyme assay (HTRF, phosphorylation of biotinylated-BAD (S112) peptide); type: biochemical; conditions: read-out: Pim3 IC50
T3 construct: by full length recombinant Pim-1, Pim-2, or Pim-3 protein; purchased Millipore (UK)
Procedure, shortened: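 Full-length recombinant Pim-3 phosphorylates biotinylated BAD (S112) peptide in 60 mM Hepes pH 7.0, 0.05% BSA, 2 mM DTT; reaction stopped with 3 mM EDTA. Phospho-BAD detected by HTRF (Eu anti-phospho-BAD S112 antibody, streptavidin-APC). IC50 from percent-of-control values fitted to a 4-parameter logistic model.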

[4] = molecular target: T4, Pim-1 stably transfected into the U2OS human osteogenic sarcoma line (Homo sapiens, UniProt P11309); test: Pim cell assay, phospho-BAD normalized against total BAD, U2OS stably transfected with Pim-1; type: cell-based; conditions: read-out: Pim1_Cell_IC50
T4 construct: expressed in transfected cells; host or cells: U2OS human osteogenic sarcoma line
Procedure, shortened: (§2)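 U2OS cells stably expressing Pim-1 or Pim-2 were plated overnight at 37 °C, then dosed over a 10-point curve (final 0.3% DMSO; DMSO alone as high control). Lysates assayed for phospho- and total BAD by Meso Scale immunoassay; % phosphoprotein = (2×phospho)/(phospho+total)×100.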

[5] = molecular target: T5, Pim-2 stably transfected into the U2OS human osteogenic sarcoma line (Homo sapiens, UniProt Q9P1W9); test: Pim cell assay, phospho-BAD normalized against total BAD, U2OS stably transfected with Pim-2; type: cell-based; conditions: read-out: Pim2_Cell_IC50; note: high dose 31.6 µM
T5 construct: expressed in transfected cells; host or cells: U2OS human osteogenic sarcoma line
Procedure, shortened: as §2

[6] = U2OS cells stably transfected with Pim-1, phospho-BAD, high dose […]
[7] = U2OS cells stably transfected with Pim-2, phospho-BAD, high dose […]

T5 sequence (Q9P1W9 whole entry): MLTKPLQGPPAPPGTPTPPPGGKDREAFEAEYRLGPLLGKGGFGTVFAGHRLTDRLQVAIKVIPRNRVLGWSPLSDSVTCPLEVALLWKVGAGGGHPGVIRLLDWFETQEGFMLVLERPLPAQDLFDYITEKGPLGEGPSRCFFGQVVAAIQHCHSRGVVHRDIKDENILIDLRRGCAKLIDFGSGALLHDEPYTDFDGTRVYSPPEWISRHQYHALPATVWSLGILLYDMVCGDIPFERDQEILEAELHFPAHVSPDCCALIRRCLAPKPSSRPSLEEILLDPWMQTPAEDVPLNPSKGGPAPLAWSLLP
T2 sequence (Q9P1W9 whole entry): as above
T1 sequence (P11309 whole entry): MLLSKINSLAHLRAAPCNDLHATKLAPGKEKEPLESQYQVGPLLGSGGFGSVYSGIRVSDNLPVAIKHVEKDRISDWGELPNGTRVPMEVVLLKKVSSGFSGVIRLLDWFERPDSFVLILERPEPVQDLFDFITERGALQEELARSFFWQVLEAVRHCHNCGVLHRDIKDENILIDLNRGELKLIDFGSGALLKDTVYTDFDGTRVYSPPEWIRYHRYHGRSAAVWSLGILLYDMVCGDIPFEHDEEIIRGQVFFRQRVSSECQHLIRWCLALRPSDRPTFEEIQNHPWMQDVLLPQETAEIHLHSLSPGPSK
T4 sequence (P11309 whole entry): as above

| SMILES | IC50 [1] | IC50 [2] | IC50 [3] | IC50 [4] | IC50 [5] | IC50 [4, 6] | IC50 [5, 7] |
| --- | --- | --- | --- | --- | --- | --- | --- |
| COc1cncc(-c2ccc3[nH]nc(-c4cnc(N5CCC(N)CC5)s4)c3c2)c1 [Example 31, 1-(5-(5-(5-Methoxypyridin-3-yl)-1H-indazol-3-yl)thiazol-2-yl)piperidin-4-amine] | 0.009 µM | 0.326 µM | 0.004 µM | 0.6 µM | 21.6 µM |  |  |
| Fc1cccc(F)c1-c1ccc2[nH]cc(-c3cncc(NC4CCCNC4)c3)c2n1 (stereo not shown) [Example 33, 5-(5-(2,6-difluorophenyl)-1H-pyrrolo[3,2-b]pyridin-3-yl)-N-(piperidin-3-yl)pyridin-3-amine] | 0.026 µM | 0.243 µM | 0.069 µM | 1.08 µM | > 31.6 µM |  |  |
| NC1CCN(c2cncc(-c3c[nH]c4ccc(-c5ccccc5F)nc34)c2)CC1 [Example 34, 1-(5-(5-(2-fluorophenyl)-1H-pyrrolo[3,2-b]pyridin-3-yl)pyridin-3-yl)piperidin-4-amine] | 0.027 µM | 0.38 µM | 0.029 µM | 1.01 µM | > 31.6 µM |  |  |
| NC1CCN(c2cncc(-c3n[nH]c4ccc(-c5cc(C(=O)NCc6ccccc6)ccc5F)cc34)n2)CC1 [Example 36, 3-(3-(6-(4-amino-1-piperidinyl)-2-pyrazinyl)-1H-indazol-5-yl)-N-benzyl-4-fluorobenzamide] | 0.006 µM | 0.007 µM | 0.002 µM |  |  | 2.06 µM | 6.61 µM |
| CC(C)(C)NC(=O)c1ccc(F)c(-c2ccc3[nH]nc(-c4cncc(N5CCC(N)CC5)n4)c3c2)c1 [Example 37, 3-(3-(6-(4-amino-1-piperidinyl)-2-pyrazinyl)-1H-indazol-5-yl)-N-tert-butyl-4-fluorobenzamide] | 0.013 µM | 0.019 µM | 0.005 µM |  |  | 0.573 µM | 3.53 µM |
| CCCCNC(=O)c1ccc(F)c(-c2ccc3[nH]nc(-c4cncc(N5CCC(N)CC5)n4)c3c2)c1 [Example 38, 3-(3-(6-(4-amino-1-piperidinyl)-2-pyrazinyl)-1H-indazol-5-yl)-N-butyl-4-fluorobenzamide] | 0.007 µM | 0.009 µM | 0.003 µM |  |  | 1.21 µM | 4.74 µM |
| CCCNC(=O)c1ccc(F)c(-c2ccc3[nH]nc(-c4cncc(N5CCC(N)CC5)n4)c3c2)c1 [Example 39, 3-(3-(6-(4-amino-1-piperidinyl)-2-pyrazinyl)-1H-indazol-5-yl)-4-fluoro-N-propylbenzamide] | 0.007 µM | 0.01 µM | 0.004 µM |  |  | 1.62 µM | 6.63 µM |
| CN(C)C(=O)c1ccc(F)c(-c2ccc3[nH]nc(-c4cncc(N5CCC(N)CC5)n4)c3c2)c1 [Example 40, 3-(3-(6-(4-amino-1-piperidinyl)-2-pyrazinyl)-1H-indazol-5-yl)-4-fluoro-N,N-dimethylbenzamide] | 0.024 µM | 0.013 µM | 0.016 µM |  |  | 2.37 µM | 7.06 µM |
| NC1CCN(c2cncc(-c3n[nH]c4ccc(-c5cc(C(=O)N6CCCCC6)ccc5F)cc34)n2)CC1 [Example 41, 1-(6-(5-(2-fluoro-5-(1-piperidinylcarbonyl)phenyl)-1H-indazol-3-yl)-2-pyrazinyl)-4-piperidinamine] | 0.035 µM | 0.029 µM | 0.026 µM |  |  | 1.4 µM | 8.52 µM |
| NC1CCN(c2cncc(-c3n[nH]c4ccc(-c5cc(C(=O)N6CCOCC6)ccc5F)cc34)n2)CC1 [Example 42, 1-(6-(5-(2-fluoro-5-(4-morpholinylcarbonyl)phenyl)-1H-indazol-3-yl)-2-pyrazinyl)-4-piperidinamine] | 0.032 µM | 0.041 µM | 0.02 µM |  |  | 2.8 µM | 9.84 µM |

Other lines, results leading:

| IC50 [1] | IC50 [2] | IC50 [3] | IC50 [4] | IC50 [5] | IC50 [4, 6] | IC50 [5, 7] | SMILES |
| --- | --- | --- | --- | --- | --- | --- | --- |
| 0.007 µM | 0.005 µM | 0.003 µM |  |  | 2.52 µM | 14.9 µM | CCNC(=O)c1ccc(F)c(-c2ccc3[nH]nc(-c4cncc(N5CCC(N)CC5)n4)c3c2)c1 [Example 43, 3-(3-(6-(4-amino-1-piperidinyl)-2-pyrazinyl)-1H-indazol-5-yl)-N-ethyl-4-fluorobenzamide] |
| 0.007 µM | 0.005 µM | 0.004 µM |  |  | 0.932 µM | 4.58 µM | CC(C)NC(=O)c1ccc(F)c(-c2ccc3[nH]nc(-c4cncc(N5CCC(N)CC5)n4)c3c2)c1 [Example 44, 3-(3-(6-(4-amino-1-piperidinyl)-2-pyrazinyl)-1H-indazol-5-yl)-4-fluoro-N-(1-methylethyl)benzamide] |
| 0.012 µM | 0.023 µM | 0.008 µM |  |  | 1.56 µM | > 31.6 µM | NC1CCN(c2cncc(-c3n[nH]c4ccc(-c5cc(C(=O)Nc6ccccc6)ccc5F)cc34)n2)CC1 [Example 45, 3-(3-(6-(4-amino-1-piperidinyl)-2-pyrazinyl)-1H-indazol-5-yl)-4-fluoro-N-phenylbenzamide] |
| 0.02 µM | 0.049 µM | 0.022 µM |  |  | 0.959 µM | 7.03 µM | CCN(CC)C(=O)c1ccc(F)c(-c2ccc3[nH]nc(-c4cncc(N5CCC(N)CC5)n4)c3c2)c1 [Example 46, 3-(3-(6-(4-amino-1-piperidinyl)-2-pyrazinyl)-1H-indazol-5-yl)-N,N-diethyl-4-fluorobenzamide] |
| 0.043 µM | 0.29 µM | 0.043 µM |  |  | 1.94 µM | > 31.6 µM | CCN(CC)C(=O)c1cccc(-c2ccc3[nH]nc(-c4cncc(N5CCC(N)CC5)n4)c3c2)c1F [Example 47, 3-(3-(6-(4-amino-1-piperidinyl)-2-pyrazinyl)-1H-indazol-5-yl)-N,N-diethyl-2-fluorobenzamide] |
| 0.044 µM | 0.285 µM | 0.027 µM |  |  | 1.11 µM | > 31.6 µM | NC1CCN(c2cncc(-c3n[nH]c4ccc(-c5cc6ccccc6nc5Cl)cc34)n2)CC1 [Example 48, 1-(6-(5-(2-chloro-3-quinolinyl)-1H-indazol-3-yl)-2-pyrazinyl)-4-piperidinamine] |
| 0.007 µM | 0.072 µM | 0.007 µM |  |  | 1.34 µM | > 31.6 µM | Cn1ccc2cc(-c3ccc4[nH]nc(-c5cncc(N6CCC(N)CC6)n5)c4c3)ccc2c1=O [Example 49, 6-(3-(6-(4-amino-1-piperidinyl)-2-pyrazinyl)-1H-indazol-5-yl)-2-methyl-1(2H)-isoquinolinone] |
| 0.024 µM | 0.47 µM | 0.021 µM |  |  | 2.27 µM | > 31.6 µM | Cn1c(=O)cc(-c2ccc3[nH]nc(-c4cncc(N5CCC(N)CC5)n4)c3c2)c2ccccc21 [Example 50, 4-(3-(6-(4-amino-1-piperidinyl)-2-pyrazinyl)-1H-indazol-5-yl)-1-methyl-2(1H)-quinolinone] |
| 0.013 µM | 0.087 µM | 0.009 µM |  |  | 1.46 µM | > 31.6 µM | CN1C(=O)Cc2cc(-c3ccc4[nH]nc(-c5cncc(N6CCC(N)CC6)n5)c4c3)ccc21 [Example 51, 5-(3-(6-(4-amino-1-piperidinyl)-2-pyrazinyl)-1H-indazol-5-yl)-1-methyl-1,3-dihydro-2H-indol-2-one] |
| 0.004 µM | 0.024 µM | 0.001 µM |  |  | 0.237 µM | 9.5 µM | NC1CCN(c2cncc(-c3n[nH]c4ccc(-c5ccc6ncsc6c5)cc34)n2)CC1 [Example 52, 1-(6-(5-(1,3-benzothiazol-6-yl)-1H-indazol-3-yl)-2-pyrazinyl)-4-piperidinamine] |
| 0.002 µM | 0.017 µM | 0.001 µM |  |  | 0.28 µM | 9.93 µM | NC1CCN(c2cncc(-c3n[nH]c4ccc(-c5ccc6scnc6c5)cc34)n2)CC1 [Example 53, 1-(6-(5-(1,3-benzothiazol-5-yl)-1H-indazol-3-yl)-2-pyrazinyl)-4-piperidinamine] |
| 0.001 µM | 0.051 µM | 0.001 µM |  |  | 0.287 µM | > 31.6 µM | NC1CCN(c2cncc(-c3n[nH]c4ccc(-c5cnc6ccccc6c5)cc34)n2)CC1 [Example 55, 1-(6-(5-(3-quinolinyl)-1H-indazol-3-yl)-2-pyrazinyl)-4-piperidinamine] |
| 0.002 µM | 0.015 µM | 0.001 µM |  |  | 0.13 µM | > 31.6 µM | NC1CCN(c2cncc(-c3n[nH]c4ccc(-c5ccc6nccnc6c5)cc34)n2)CC1 [Example 56, 1-(6-(5-(6-quinoxalinyl)-1H-indazol-3-yl)-2-pyrazinyl)-4-piperidinamine] |
